Source: ChEMBL document CHEMBL1201862, “PubChem BioAssay data set” (2004)
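All cell lines were grown in 96-well plates and treated with compound for 48 hours. GI50 marks 50% less growth.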 Active and inactive are the calls of the source. Rule as the data show it: active = GI50 up to about 1.1 µM and inactive = higher.

Assays:
Test in all cases: growth of human tumour cells (NCI), 48 h
[1] = system: CCRF-CEM
[2] = system: 786-0
[3] = system: MDA-MB-231
[4] = system: ACHN
[5] = system: SW-620
[6] = system: RPMI-8226
[7] = system: MOLT-4
[8] = system: SN12C
[9] = system: SK-OV-3
[10] = system: HCC 2998
[11] = system: U-251
[12] = system: SK-MEL-28
[13] = system: A498
[14] = system: CAKI-1
[15] = system: UO-31
[16] = system: NCI-H226
[17] = system: SR
[18] = system: NCI-H522
[19] = system: IGROV-1
[20] = system: BT-549
[21] = system: NCI-H460
[22] = system: UACC-257
[23] = system: SNB-75
[24] = system: DU-145
[25] = system: A549
[26] = system: HCT-15
[27] = system: T47D
[28] = system: OVCAR-3
[29] = system: SK-MEL-2
[30] = system: COLO 205
[31] = system: SF-295
[32] = system: HT-29
[33] = system: TK-10
[34] = system: OVCAR-5
[35] = system: UACC-62
[36] = system: MCF7
[37] = system: RXF 393
[38] = system: NCI/ADR-RES
[39] = system: OVCAR-8
[40] = system: HOP-62
[41] = system: Hs-578T
[42] = system: K562
[43] = system: LOX IMVI
[44] = system: OVCAR-4
[45] = system: SF-268
[46] = system: MDA-N
[47] = system: EKVX
[48] = system: M14
[49] = system: HL-60
[50] = system: HCT-116
[51] = system: KM12
[52] = system: SF-539
[53] = system: HOP-92
[54] = system: Malme-3M
[55] = system: PC-3
[56] = system: SK-MEL-5
[57] = system: NCI-H23
[58] = system: MDA-MB-435
[59] = system: SNB-19

For `Clc1ccccc1C(Nc1cnccn1)Nc1cnccn1`, the GI50 [1] was 0.675 µM (active), the GI50 [2] was > 100 µM (inactive) and the GI50 [3] was > 100 µM (inactive). The GI50 [4] was > 100 µM (inactive), the GI50 [5] was 4.36 µM (inactive) and the GI50 [6] was 35.1 µM (inactive). The GI50 [7] was 23.6 µM (inactive), the GI50 [8] was > 100 µM (inactive) and the GI50 [9] was > 100 µM (inactive). For the same compound, the GI50 [10] was > 100 µM (inactive), the GI50 [11] was > 100 µM (inactive) and the GI50 [12] was > 100 µM (inactive). The GI50 [13] was > 100 µM (inactive), the GI50 [14] was > 100 µM (inactive) and the GI50 [15] was > 100 µM (inactive). For the same compound, the GI50 [16] was > 100 µM (inactive), the GI50 [17] was 0.07 µM (active) and the GI50 [18] was > 100 µM (inactive). The GI50 [19] was > 100 µM (inactive), the GI50 [20] was > 100 µM (inactive) and the GI50 [21] was > 100 µM (inactive). The GI50 [22] was > 100 µM (inactive), the GI50 [23] was 96.6 µM (inactive) and the GI50 [24] was > 100 µM (inactive). The GI50 [25] was > 100 µM (inactive), the GI50 [26] was 8.71 µM and the GI50 [27] was > 100 µM (inactive). The GI50 [28] was > 100 µM (inactive), the GI50 [29] was > 100 µM (inactive) and the GI50 [30] was > 100 µM (inactive). The GI50 [31] was > 100 µM (inactive), the GI50 [32] was > 100 µM (inactive) and the GI50 [33] was > 100 µM (inactive). For the same compound, the GI50 [34] was > 100 µM (inactive), the GI50 [35] was > 100 µM (inactive) and the GI50 [36] was > 100 µM (inactive). For the same compound, the GI50 [37] was > 100 µM (inactive), the GI50 [38] was > 100 µM (inactive) and the GI50 [39] was > 100 µM (inactive). The GI50 [40] was > 100 µM (inactive), the GI50 [41] was > 100 µM (inactive) and the GI50 [42] was 4.12 µM (inactive). For the same compound, the GI50 [43] was > 100 µM (inactive), the GI50 [44] was > 100 µM (inactive) and the GI50 [45] was > 100 µM (inactive). The GI50 [46] was 23.2 µM (inactive), the GI50 [47] was > 100 µM (inactive) and the GI50 [48] was 5.85 µM (inactive). For the same compound, the GI50 [49] was 0.692 µM (active), the GI50 [50] was 98.2 µM (inactive) and the GI50 [51] was > 100 µM (inactive). The GI50 [52] was > 100 µM (inactive), the GI50 [53] was > 100 µM (inactive) and the GI50 [54] was > 100 µM (inactive). The GI50 [55] was > 100 µM (inactive), the GI50 [56] was > 100 µM (inactive) and the GI50 [57] was > 100 µM (inactive). The GI50 [58] was 8.59 µM (inactive) and the GI50 [59] was > 100 µM (inactive).
